According to PubChem BioAssay AID330 (DTP/NCI, 2004):
“And” between values parts separate entries of the source, which are not always exact repeats. Identical values can stand only once. Inconclusive results and toxic doses are left out. Rule for the calls: active = survival T/C of 150% or more; inactive = T/C below 125% in these data.

Tested on: P388 leukemia ip, CD2F1 mice, survival T/C
Test: NCI In Vivo Anticancer Drug Screen. Data for tumor model P388 Leukemia (intraperitoneal) in CD2F1 (CDF1) mice
Conditions: endpoint: median survival time, higher = longer survival
Procedure, shortened: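 Mice carrying the transplanted tumor received test compound or vehicle. Survival was recorded in each group, and the value is the treated-group measurement divided by that of the vehicle-treated control group.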

[1] = dose: 60.0 mg/kg/injection, schedule: Q01DX005 (ip), vehicle: saline with Tween-80
[2] = dose: 120.0 mg/kg/injection, schedule: Q01DX005 (ip), vehicle: saline with Tween-80
[3] = dose: 240.0 mg/kg/injection, schedule: Q01DX005 (ip), vehicle: saline with Tween-80
[4] = dose: 100.0 mg/kg/injection, schedule: Q04DX002 (ip), vehicle: saline
[5] = dose: 200.0 mg/kg/injection, schedule: Q04DX002 (ip), vehicle: saline
[6] = dose: 400.0 mg/kg/injection, schedule: Q04DX002 (ip), vehicle: saline
[7] = dose: 50.0 mg/kg/injection, schedule: Q01DX005 (ip), vehicle: Klucel (hydroxypropylcellulose) (HPC)
[8] = dose: 100.0 mg/kg/injection, schedule: Q01DX005 (ip), vehicle: Klucel (hydroxypropylcellulose) (HPC)
[9] = dose: 200.0 mg/kg/injection, schedule: Q01DX005 (ip), vehicle: Klucel (hydroxypropylcellulose) (HPC)
[10] = dose: 50.0 mg/kg/injection, schedule: Q01DX005 (ip), vehicle: saline with Tween-80

Measured: T/C

CCN(CC)CCOc1ccc(N(CCCl)CCCl)cc1
active: dose: 12.5 mg/kg/injection, schedule: Q04DX003 (ip), vehicle: Klucel (hydroxypropylcellulose) (HPC) 153 % of control and 168 % of control
inactive: dose: 3.13 mg/kg/injection, schedule: Q04DX003 (ip), vehicle: Klucel (hydroxypropylcellulose) (HPC) 117 % of control | dose: 25.0 mg/kg/injection, schedule: Q04DX003 (ip), vehicle: Klucel (hydroxypropylcellulose) (HPC) 90 % of control

Cc1ccc(C(=O)OC(C(=O)O)C(OC(=O)c2ccc(C)cc2)C(=O)O)cc1 (stereo not given) (tested in a mixture with another compound)
inactive: dose: 5.25 mg/kg/injection, schedule: Q01DX005 (ip), vehicle: Klucel (hydroxypropylcellulose) (HPC) 105 % of control | dose: 10.5 mg/kg/injection, schedule: Q01DX005 (ip), vehicle: Klucel (hydroxypropylcellulose) (HPC) 107 % of control | dose: 21.0 mg/kg/injection, schedule: Q01DX005 (ip), vehicle: Klucel (hydroxypropylcellulose) (HPC) 105 % of control | dose: 42.0 mg/kg/injection, schedule: Q01DX005 (ip), vehicle: Klucel (hydroxypropylcellulose) (HPC) 100 % of control

O=c1cc(-c2ccc(OCc3ccccc3)cc2)oc2c(-c3c(OCc4ccccc4)cc(OCc4ccccc4)c4c(=O)cc(-c5ccc(OCc6ccccc6)cc5)oc34)c(OCc3ccccc3)cc(OCc3ccccc3)c12
inactive: dose: 100.0 mg/kg/injection, schedule: Q01DX001 (ip), vehicle: Klucel (hydroxypropylcellulose) (HPC) 95 % of control | dose: 200.0 mg/kg/injection, schedule: Q01DX001 (ip), vehicle: Klucel (hydroxypropylcellulose) (HPC) 92 % of control | dose: 400.0 mg/kg/injection, schedule: Q01DX001 (ip), vehicle: Klucel (hydroxypropylcellulose) (HPC) 103 % of control

O=C1CSC(c2cccc(Cl)c2)N1c1nncs1 (stereo not given)
inactive: [1] 109 % of control | [2] 97 % of control | [3] 98 % of control

CC1=CC(S)NC(=S)N1 (stereo not given)
inactive: [1] 101 % of control | [2] 105 % of control | [3] 102 % of control

O=C1C(=O)c2ccccc2C(O)=C1CC=C(Br)Br
inactive: dose: 50.0 mg/kg/injection, schedule: Q01DX009 (ip), vehicle: saline with Tween-80 100 % of control | dose: 100.0 mg/kg/injection, schedule: Q01DX009 (ip), vehicle: saline with Tween-80 100 % of control | dose: 100.0 mg/kg/injection, schedule: Q04DX003 (ip), vehicle: saline with Tween-80 100 % of control | dose: 200.0 mg/kg/injection, schedule: Q04DX003 (ip), vehicle: saline with Tween-80 110 % of control

CCCC(O)C(C)[N+](=O)[O-] (stereo not given)
inactive: dose: 100.0 mg/kg/injection, schedule: Q04DX003 (ip), vehicle: saline 100 % of control | dose: 200.0 mg/kg/injection, schedule: Q04DX003 (ip), vehicle: saline 95 % of control

COC(=O)[C@]1(CC[N+](=O)[O-])N=C(c2ccccc2)O[C@@H]1C
inactive: [1] 105 % of control | [2] 109 % of control | [3] 113 % of control

Nc1ccn(COC(CO)CO)c(=O)n1
inactive: [4] 97 % of control | [5] 98 % of control | [6] 103 % of control

O=c1[nH]c(=O)n(C2OC(CCl)C(O)C2O)cc1F (stereo not given)
inactive: dose: 30.0 mg/kg/injection, schedule: Q04DX002 (ip), vehicle: saline 99 % of control | dose: 43.0 mg/kg/injection, schedule: Q04DX002 (ip), vehicle: water 104 % of control | dose: 60.0 mg/kg/injection, schedule: Q04DX002 (ip), vehicle: saline 102 % of control | dose: 86.0 mg/kg/injection, schedule: Q04DX002 (ip), vehicle: water 106 % of control | dose: 120.0 mg/kg/injection, schedule: Q04DX002 (ip), vehicle: saline 116 % of control | dose: 172.0 mg/kg/injection, schedule: Q04DX002 (ip), vehicle: water 113 % of control | dose: 240.0 mg/kg/injection, schedule: Q04DX002 (ip), vehicle: saline 109 % of control | dose: 344.0 mg/kg/injection, schedule: Q04DX002 (ip), vehicle: water 113 % of control

COC(=O)C12C3c4ccccc4C1C2c1ccccc13 (stereo not given)
inactive: [4] 99 % of control | [5] 94 % of control | [6] 96 % of control

NC(=O)NC1(N)C(=O)NC(=O)NC1=O
inactive: [1] 94 % of control | [2] 95 % of control | [3] 93 % of control

COc1ccc2c(c1OC)C(=O)OC2
inactive: [7] 90 % of control | [8] 90 % of control | [9] 90 % of control

CN(C)CC(CN(C)C)C(=O)c1ccc(O)cc1
inactive: dose: 6.25 mg/kg/injection, schedule: Q01DX005 (ip), vehicle: saline 118 % of control | dose: 12.5 mg/kg/injection, schedule: Q01DX005 (ip), vehicle: saline 105 % of control | dose: 25.0 mg/kg/injection, schedule: Q01DX005 (ip), vehicle: saline 110 % of control

CC(C)=CCCC(C)C1(O)CCC(C)=CC1=O (stereo not given)
inactive: dose: 12.5 mg/kg/injection, schedule: Q01DX005 (ip), vehicle: Klucel (hydroxypropylcellulose) (HPC) 96 % of control | dose: 25.0 mg/kg/injection, schedule: Q01DX005 (ip), vehicle: Klucel (hydroxypropylcellulose) (HPC) 99 % of control | [7] 94 % of control | [8] 99 % of control

CC(C)c1ccc2c(c1)CCC1C(C)(CN)CCCC21C (stereo not given)
inactive: [7] 97 % of control | [8] 99 % of control

CCN(CC)CCCC(C)N=C(Nc1ccccc1)c1ccc(Cl)cc1 (stereo not given)
inactive: dose: 50.0 mg/kg/injection, schedule: Q01DX005 (ip), vehicle: saline 104 % of control | dose: 100.0 mg/kg/injection, schedule: Q01DX005 (ip), vehicle: saline 102 % of control

CS(=O)(=O)OCCOc1ccc(-c2nc3ccccc3[nH]2)cc1
inactive: dose: 100.0 mg/kg/injection, schedule: Q01DX001 (ip), vehicle: saline with Tween-80 90 % of control | dose: 200.0 mg/kg/injection, schedule: Q01DX001 (ip), vehicle: saline with Tween-80 98 % of control | dose: 400.0 mg/kg/injection, schedule: Q01DX001 (ip), vehicle: saline with Tween-80 99 % of control

CCN(CC)c1ccc(C(=C2C=CC(=[N+](CC)CC)C=C2)c2ccc(N(CC)CC)cc2)cc1
inactive: [10] 113 % of control and 120 % of control

CCC1=C(C)c2cc3[n-]c(cc4nc(cc5[n-]c(cc1n2)c(C)c5CCC(=O)OC)C(CCC(=O)OC)=C4C)c(C)c3CC.[Ni+2]
inactive: dose: 18.75 mg/kg/injection, schedule: Q01DX009 (ip), vehicle: saline with Tween-80 87 % of control | dose: 37.5 mg/kg/injection, schedule: Q01DX009 (ip), vehicle: saline with Tween-80 87 % of control | dose: 75.0 mg/kg/injection, schedule: Q01DX009 (ip), vehicle: saline with Tween-80 94 % of control

COC(=O)C1=CCC[C@H]2C1(C)CCC(C)C21CC(c2ccoc2)OC1=O (stereo not given in full)
inactive: dose: 3.5 mg/kg/injection, schedule: Q01DX005 (ip), vehicle: Klucel (hydroxypropylcellulose) (HPC) 106 % of control | dose: 7.0 mg/kg/injection, schedule: Q01DX005 (ip), vehicle: Klucel (hydroxypropylcellulose) (HPC) 91 % of control | dose: 14.0 mg/kg/injection, schedule: Q01DX005 (ip), vehicle: Klucel (hydroxypropylcellulose) (HPC) 95 % of control | dose: 28.0 mg/kg/injection, schedule: Q01DX005 (ip), vehicle: Klucel (hydroxypropylcellulose) (HPC) 91 % of control | [7] 92 % of control

C=C1C(O)C2OC(=O)C(=C)C2C(OC(=O)/C(C)=C/C)CC2(C)OC2C2OC12 (stereo not given)
inactive: dose: 4.0 mg/kg/injection, schedule: Q01DX005 (ip), vehicle: Klucel (hydroxypropylcellulose) (HPC) 96 % of control | dose: 8.0 mg/kg/injection, schedule: Q01DX005 (ip), vehicle: Klucel (hydroxypropylcellulose) (HPC) 103 % of control | dose: 16.0 mg/kg/injection, schedule: Q01DX005 (ip), vehicle: Klucel (hydroxypropylcellulose) (HPC) 100 % of control | dose: 32.0 mg/kg/injection, schedule: Q01DX005 (ip), vehicle: Klucel (hydroxypropylcellulose) (HPC) 116 % of control | [7] 115 % of control | dose: 64.0 mg/kg/injection, schedule: Q01DX005 (ip), vehicle: Klucel (hydroxypropylcellulose) (HPC) 116 % of control | [8] 109 % of control | [9] 103 % of control

NNC(=O)CS(=O)(=O)NCc1ccccc1
inactive: [7] 100 % of control | [8] 99 % of control | [9] 97 % of control

Cc1noc(NS(=O)(=O)c2ccc(N=c3c4ccccc4n(Cc4ccccc4)c4ccccc34)cc2)c1C
inactive: [10] 96 % of control | dose: 100.0 mg/kg/injection, schedule: Q01DX005 (ip), vehicle: saline with Tween-80 94 % of control | dose: 200.0 mg/kg/injection, schedule: Q01DX005 (ip), vehicle: saline with Tween-80 87 % of control

COC(=O)c1ccc(O)cc1C1(Cl)CC1
inactive: dose: 60.0 mg/kg/injection, schedule: Q01DX005 (ip), vehicle: Klucel (hydroxypropylcellulose) (HPC) 108 % of control | dose: 120.0 mg/kg/injection, schedule: Q01DX005 (ip), vehicle: Klucel (hydroxypropylcellulose) (HPC) 102 % of control | dose: 240.0 mg/kg/injection, schedule: Q01DX005 (ip), vehicle: Klucel (hydroxypropylcellulose) (HPC) 100 % of control
